Experiments:
[1] = tested on: injured left common carotid artery; test: In vivo MRI of common carotid arteries in balloon-injured living rat; details: for MRI signal in the injured left common carotid artery (image): 2 ml of 24 mM (about 160 μM/kg) via left femoral vein, T1 weighted spin echo, FIG. 6; for MRI signal intensity of injured common carotid artery versus normal common carotid artery: 2 ml of 24 mM via left femoral vein, time course, own agent stated at ten minutes after administration, FIG. 7
Experimental: This example is to evaluate the imaging capability of the contrast agent of the present invention by means of an in vivo experiment using a living rat. A rat (weighing about 300 g) was anesthetized with pentobarbital, and inserted with a balloon-tip catheter through the left femoral artery [FIG. 5 (a), 1]. The left common carotid artery was scraped by the balloon to injure the endothelia thereof. Then the rat was injected, through the left femoral vein [FIG. 5 (a), 2], with 2 ml (about 160 μM/kg) of physiological aqueous solution of the contrast agent as prepared in Example 1 (24 mM). At predetermined lapses of time, images were taken by MRI (the T1 weighted spin echo method) around the right and left common carotid artery [the cross section along the line N-N in FIG. 5 (a)]. The rat was supplementally anesthetized in order to keep it motionless during the imaging operation. For comparison, an evaluation experiment was also carried out in the same manner with a conventional agent, DTPA-Gd. […] In FIG. 6, by “injured” is designated the left common carotid artery injured by the balloon, corresponding to 4 in FIG. 5 (b), while by “intact” is designated the right common carotid artery, which is normal and corresponds to 5 in FIG. 5 (b). The numeral 3 in FIG. 5 (b) denotes the bronchium.

[2] = tested on: exfoliated endothelial site (balloon-injured left carotid artery); test: Ex vivo MRI of extirpated carotid arteries after injection into balloon-injured living rat; type: in vivo; details: 2 ml of 24 mM via right jugular vein, FIG. 3
Experimental: The contrast agent of the present invention was evaluated for imaging capability by means of an ex vivo experiment using a living rat. A balloon-tip catheter was passed through the left femoral artery of the rat to injure the carotid artery with the balloon. Then 2 ml of aqueous saline solution containing 24 mM of the contrast agent (EBDTPA-Gd prepared in Example 1) was injected to the rat through the right jugular vein. After a predetermined period of time (10, 30 or 120 minutes), the right carotid artery and the left carotid artery were extirpated, developed, washed with a physiological saline, and then subjected to evaluation by MRI. The MRI evaluation was carried out by imaging the extirpated carotid artery sections, under the condition of being added with one or two droplets of physiological saline solution, by the T1 weighted spin echo method. In FIG. 3, by “injured” is denoted the exfoliated endothelial site (the left carotid artery), which had been injured by the balloon, while “intact” denotes the normal endothelial site (the right carotid artery). The photographs of the developed vascular samples as presented in FIG. 3 reveal purple coloring with intensities corresponding to the MRI signal intensities described later. The pictures (A) as presented in FIG. 3 below the photographs of the developed vascular samples illustrate the states of the samples prepared for the study by MRI. As illustrated, each carotid artery section was developed on a glass plate and covered with one or two droplets of physiological saline solution, for the MRI study.

[3] = Gd content remaining in various organs of the rat (ICP); type: in vivo
Experimental: This was also verified by measuring Gd (gadolinium) content remaining in various organs of the rat, in which the measurement was carried out as follows: The rat was administered with 1 ml heparin and a blood sample was taken from the rat. Then physiological saline solution was circulated throughout the rat, and the various organs were extirpated from the rat. To each organ and the blood sample was added 3 ml nitric acid, followed by standing for one hour. The resultant was added with 25% hydrogen peroxide aqueous solution and then allowed to stand overnight at room temperature. The resultant solution was warmed and added with 6 ml water. The insolubles were removed by filtration, and the filtrate was analyzed by ICP.

[4] = tested on: exfoliated endothelial site of aortic vascular section; test: In vitro MRI imaging capability on aortic vascular section extirpated from a pig; details: pig aortic section immersed in 10 mM aqueous solution for ten seconds
Experimental: For the contrast agent as synthesized (prepared) in Example 1, evaluation of in vitro imaging capability by MRI was carried out with an aortic vascular section extirpated from a pig, as a specimen.
The aortic vascular section extirpated from a pig was spread in a rectangular shape measuring about 2 cm×3 cm to prepare a vascular section sample. The endothelial surface of the left half of the sample was exfoliated with a scalpel. The sample was then immersed in a 10 mM aqueous solution of the contrast agent for ten seconds. Following thorough washing with physiological saline solution, the sample was subjected to the evaluation by MRI as well as by visual observation.
FIG. 2 (A) is a picture taken with a digital camera, which corresponds to the visual observation. […] FIG. 2 (B) is an MRI image (by the T1 weighted spin echo method).

Row | SMILES | MRI signal in the injured left common carotid artery (image) [1] | MRI signal intensity of injured common carotid artery versus normal common carotid artery [1] | difference in MRI signal intensity between exfoliated site and normal site ([2]; after 120 minutes) | difference in MRI signal intensity between exfoliated endothelial site and normal site ([2]; after thirty minutes) | MRI signal intensity of the injured site relative to the normal site ([2]; ten minutes from the injection) [times] | Gd content remaining in various organs ([3]; rat organs and blood, ICP, FIG. 4) | colour of urine (excretion through the kidney) ([3]; rat, ten minutes after the administration) | visual observation of the exfoliated endothelial site ([4]; FIG. 2(A)) | MRI signal intensity at the exfoliated endothelial site relative to the normal endothelial site ([4]; T1 weighted spin echo, FIG. 2(C))
1 | Cc1cc(-c2ccc(NC(=O)CN(CCN(CCN(CC(=O)O)CC(=O)O)CC(=O)O)CC(=O)O)c(C)c2)ccc1N=Nc1ccc2c(S(=O)(=O)O)cc(S(=O)(=O)O)c(N)c2c1O [contrast agent of the present invention] | clear MRI signal | higher than that for the normal right common carotid artery | no substantial difference | the difference in the signal intensity therebetween shortened | 1.74 | substantially no remaining Gd in organs other than the blood and kidney | colored purple | colored blue | about ten
2 | O=C([O-])CN(CCN(CC(=O)[O-])CC(=O)O)CCN(CC(=O)[O-])CC(=O)O.[Gd+3] [DTPA-Gd, reference compound] | no such signal was observed | no substantial difference | – | – | – | – | – | – | –

Reference: patent US20060153773A1, “Contrast medium for mri” (priority 2003, published 2006)
